Common to all, as to type: cell-based
The target in series [1] is 3R Shaker K channel (Drosophila melanogaster, UniProt P08510, A359R/M356R). Briefly: physchem. The settings on record: for pKa: Drosophila melanogaster, from pH dependence of G(V) shift; for G(V) shift: Table 1; for G(V) shift / compound-induced G(V) shift (mean±SEM): pH 7.4, Xenopus oocytes; for Effects on K channel Mean ± SEM: Table 2, K channel expressed in Xenopus oocytes; for maximum shift: dose dependence fit; for relative current amplitude: representative traces at voltage giving 10% of maximum conductance in control. The procedure, abridged: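 Two-electrode voltage clamp at 20-23° C. in oocytes (also CHO-K1 stable line, manual patch clamp) expressing Shaker H4 lacking N-type inactivation; 1K extracellular solution, pH 7.4, holding −80 mV, 100-ms 5-mV steps up to +70 mV. Compound-induced G(V) shift taken at 10% of control Gmax (oocytes) or as V1/2 difference (CHO-K1).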

The target in series [2] is WT Shaker K channel (Drosophila melanogaster, UniProt P08510, DEL6-46). Briefly: physchem. To be noted: for pKa: Drosophila melanogaster, from pH dependence of G(V) shift. The text has this: A Shaker K channel is a Kv channel from the fruit fly Drosophila melanogaster. It is homologous to the human Kv1-type ion channels.
All animal experiments were approved by the local Animal Care and Use Committee and followed international guidelines. A modified Shaker H4 channel^30, with removed N-type inactivation (ShH4IR)^31, here called the wild type (WT) channel, was expressed in oocytes. In addition, a modified 3R Shaker K channel where two introduced positive charged arginines (M356R and A359R) in addition to one native arginine (R362) makes the channel more sensitive to DHA^16, was expressed in oocytes and in a CHO—K1 stable cell line.
African clawed frogs (Xenopus laevis) were anesthetized with 1.4 g/L ethyl 3-aminobenzoate methanesulfonate salt (tricaine). After an incision through the abdomen a batch of oocytes were removed. Clusters of oocytes were separated by incubation for ˜1 h in a Ca-free O—R2 solution (in mM: 82.5 NaCl, 2 KCl, 5 HEPES, and 1 MgCl2; pH adjusted to 7.4 by NaOH) containing Liberase Blendzyme. The oocytes were then incubated at 8° C. in a modified Barth's solution (MBS; in mM: 88 NaCl, 1 KCl, 2.4 NaHCO3, 15 HEPES, 0.33 Ca(NO3)2, 0.41 CaCl2, and 0.82 MgSO4; pH adjusted to 7.6 by NaOH) supplemented with penicillin (25 U/ml), streptomycin (25 μg/ml), and sodium pyruvate (2.5 mM) 2-24 hours before injection. Fifty nl of cRNA (50 pg) were injected into each oocyte using a Nanoject injector (Drummond Scientific, Broomall, Pa.). Injected oocytes were kept at 8° C. in MBS until one day before electrophysiological recordings, when they were incubated at 16° C. All chemicals were supplied from Sigma-Aldrich (Stockholm, Sweden) if not stated otherwise.
All manual electrophysiological recordings were performed at room temperature (20-23° C.), using a GeneClamp 500B amplifier (for oocytes) or a Axopatch 200B amplifier (for manual patch clamp of CHO—K1 cells and DRG neurons) and a Digidata 1440A digitizer and pClamp 10 software (all from Molecular Devices, Inc., Sunnyvale, Calif., USA). Compounds were dissolved to 100 mM in 99.5% EtOH and stored at −20° C. Compounds were diluted in extracellular solution to the desired test concentration.
The oocyte was placed in a bath surrounded by 1K extracellular solution that contained (in mM): 88 NaCl, 1 KCl, 15 HEPES, 0.4 CaCl2, and 0.8 MgCl2, pH adjusted to 7.4 by NaOH (reaching a sodium concentration of ˜100 mM). Control solution was added to the bath with a gravity driven perfusion system. Compound solution was added to the bath manually with a syringe. Two glass microelectrodes were inserted into the oocyte using micromanipulators. […] All channels were closed when the potential was clamped to −80 mV and this voltage was set as the holding potential. Currents were evoked from the holding potential of −80 mV by 100-ms long, 5-mV steps ranging from −80 up to +50 mV (WT) and +70 mV (3R).
Conductance GK(V) was calculated as GK(V)=[…], (Eq. 1) where IK is the average current from the steady-state phase at the end of each 100-ms pulse, V is the membrane voltage, and Vrev is the reversal potential for K^+, (set to −80 mV for the oocytes, and calculated to be −89 mV for the CHO—K1 cells).
G(V)=A/(1+exp((V1/2−V)/s))^n (Eq. 2) where A is amplitude of the curve, V is the absolute membrane voltage, V1/2 is the midpoint, s is the slope and n is an exponent set to 4^17. The compound-induced G(V) shift was determined at the 10% level of the maximum conductance in control solution^17. The compound-induced G(V) shift in CHO—K1 was quantified by subtracting the control V1/2 from the compound V1/2 when n was set to 1.
Data for concentration and pH dependent G(V) shifts (ΔV) in oocytes were fit with a dose-response equation ΔV=ΔVmax/(1+c1/2/c), (Eq. 3) where Δvmax is the maximal shift, c1/2 is half maximal effective concentration/pKa value and c is the concentration.

Series [3] deals with HL-1 cells. Kind of series: Membrane potential and firing of spontaneously beating HL-1 cells, whole-cell current clamp. The settings on record: 10 uM. How it is done: All conventional chemicals were purchased from Sigma-Aldrich (Stockholm, Sweden). The DHAA derivatives were diluted in ethanol in a 100 mM stock solution. The stock solutions were stored at −20 t for further use.
The cell culture was done according to a previous study (Claycomb et al., Proceedings of the National Academy of Sciences of the United States of America 1998; 95:2979-2984). In brief, cells were grown on gelating fibronectin coated T75 flasks. They were maintained in Claycomb Medium which was supplemented with 10% fetal bovine serum, 2 mM L-glutamine, 0.1 mM noradrenaline, and 100 U/ml, 100 μg/ml penicillin-streptomycin. Enzymatic dissociation with 0.05% trypsin-EDTA was done after full confluence. Isolated cells were plated on fibronectin-gelatin coated plastic coverslips and used for recording.
Whole-cell current-clamp recordings were done on confluent cells at 35±1° C., using an Axopatch 200B amplifier (Molecular Devices, Sunnyvale, Calif.). Patch pipettes were fabricated from borosilicate capillary glass on a vertical pipette puller and had resistances of 3-5 MO. Data were stored on a computer through Digidata 1440A interface (Molecular Devices), and was analyzed with pCLAMP software (version 10.1, Molecular Devices). The bath solution contained the following (in mM): 140 NaCl, 5.4 KCl, 1 MgCl2, 1.8 CaCl2, 10 HEPES, and 10 glucose (pH adjusted to 7.4 with NaOH). The micropipettes were filled with a solution containing (in mM): 130 K-gluconate, 9 KCl, 8 NaCl, 1 MgCl2, 10 EGTA, 10 HEPES, and 3 Na2ATP (pH adjusted to 7.3 with KOH).

Like-named read-outs stand apart in the source and are kept apart here.

Chain of 3R Shaker K channel (P08510 whole entry M356R/A359R): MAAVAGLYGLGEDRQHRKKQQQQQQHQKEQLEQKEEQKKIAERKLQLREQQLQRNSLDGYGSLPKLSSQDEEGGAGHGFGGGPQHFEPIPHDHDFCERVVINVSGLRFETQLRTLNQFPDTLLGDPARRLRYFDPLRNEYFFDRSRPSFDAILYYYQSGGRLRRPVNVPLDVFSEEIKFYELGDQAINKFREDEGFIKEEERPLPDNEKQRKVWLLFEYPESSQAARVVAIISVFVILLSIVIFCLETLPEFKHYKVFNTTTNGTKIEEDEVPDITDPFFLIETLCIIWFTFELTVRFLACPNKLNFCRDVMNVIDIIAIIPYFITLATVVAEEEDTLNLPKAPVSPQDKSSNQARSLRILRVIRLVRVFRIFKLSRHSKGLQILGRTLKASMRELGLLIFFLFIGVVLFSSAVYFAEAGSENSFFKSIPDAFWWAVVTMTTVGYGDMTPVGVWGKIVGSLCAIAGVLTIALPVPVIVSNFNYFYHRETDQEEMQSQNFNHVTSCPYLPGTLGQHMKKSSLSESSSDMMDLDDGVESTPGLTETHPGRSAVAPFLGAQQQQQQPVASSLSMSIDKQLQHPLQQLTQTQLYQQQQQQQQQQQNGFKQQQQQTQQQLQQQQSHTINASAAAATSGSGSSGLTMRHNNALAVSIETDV
Chain of WT Shaker K channel (P08510 other isoform, or with tags, fused parts or gaps DEL6-46): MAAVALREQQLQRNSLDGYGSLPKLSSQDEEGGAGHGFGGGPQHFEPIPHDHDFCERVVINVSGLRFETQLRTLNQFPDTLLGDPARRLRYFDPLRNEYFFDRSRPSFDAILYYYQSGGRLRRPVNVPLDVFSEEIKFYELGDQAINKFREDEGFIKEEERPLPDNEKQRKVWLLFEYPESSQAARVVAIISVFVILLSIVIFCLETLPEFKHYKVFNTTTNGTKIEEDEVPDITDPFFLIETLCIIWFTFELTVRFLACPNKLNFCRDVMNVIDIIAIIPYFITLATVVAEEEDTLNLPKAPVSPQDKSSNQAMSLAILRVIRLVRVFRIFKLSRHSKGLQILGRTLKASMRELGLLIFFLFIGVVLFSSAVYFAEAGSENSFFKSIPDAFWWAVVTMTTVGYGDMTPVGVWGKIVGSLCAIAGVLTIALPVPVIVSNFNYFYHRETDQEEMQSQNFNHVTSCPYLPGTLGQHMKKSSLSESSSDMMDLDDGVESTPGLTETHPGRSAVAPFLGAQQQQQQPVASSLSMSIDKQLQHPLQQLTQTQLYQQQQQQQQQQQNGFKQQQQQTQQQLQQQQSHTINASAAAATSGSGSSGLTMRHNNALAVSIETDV

In the case of `CO/N=C1\CC2[C@](C)(C(=O)O)CCC[C@]2(C)c2cc(Br)c(C(C)C)cc21` (stereo partly drawn) [Wu32, (1R,4aS,E)-6-bromo-7-isopropyl-9-(methoxyimino)-1,4a-dimethyl-1,2,3,4,4a,9,10,10a-octahydrophenanthrene-1-carboxylic acid], in series [1] (100 μM, pH 7.4), the “increase in G(V) shift relative to DHAA (ΔVc7, ΔVhalo, ΔVtot)” value was −18.5 mV and the relative current amplitude is recorded as 10.8 times. For the same molecule, in series [1] (100 μM), the pKa was found to be 5.8 and the “G(V) shift” value is recorded as −30.0 mV. Further, in series [1], the “Effects on K channel Mean ± SEM” value is recorded as −30.0 ± 1.8 mV. The “factor of increase of the G(V) shift by bromination of C12 with methyloxime at C7” value in series [1] (Wu32 versus Wu36, 100 μM, pH 7.4) is on record as 2.5. In addition, the Kd in series [1] (c1/2 of dose dependence of G(V) shift (Eq. 3), pH 7.4, read-out: Kd-value) is 37 µM. The maximum shift in series [1] (pH 7.4) is −41 mV. Also, the “shift more than expected from simple addition” value in series [1] (methyloxime at C7 plus Br-12, 100 μM, pH 7.4) is −15.5 mV. The pKa in series [2] (100 μM) worked out at 6.1. In series [3], the “Effects on HL-1 cells Mean (membrane potential)” value (from here on “Effects on HL-1 cells Mean”) is given as −3.6 mV and the “effect on membrane potential of HL-1 cells” value is given as “intermediate effect on the HL-1 cells”.

`CC(C)c1ccc2c(c1)C(C(=O)O)CC1[C@](C)(C(=O)O)CCC[C@]21C` (stereo partly drawn) [Wu35]: in series [1] (100 μM), the “compound-induced G(V) shift (mean±SEM)” value was “no effect on the K channel” and the “G(V) shift” value is −1.3 mV. In addition, the “effect on G(V) shift / current compared with DHAA” value in series [1] (C7-modified DHAA, 100 μM, pH 7.4) is “clearly reduced the current increase”. For the same molecule, the “Effects on K channel Mean ± SEM” value in series [1] was −1.2 ± 0.6 mV. The molecule also gave a relative current amplitude in series [1] (100 μM, pH 7.4) of 1.3 times. Further, in series [3], the “Effects on HL-1 cells Mean” value was 1.5 mV and the “effect on membrane potential of HL-1 cells” value is on record as “no effect on the HL-1 cells”.

Regarding `C[C@@]1(C(=O)O)CCC[C@]2(C)c3cc(Cl)c(Cl)c(Cl)c3CCC12` (stereo partly drawn) [Wu50, (1R,4aS)-6,7,8-trichloro-1,4a-dimethyl-1,2,3,4,4a,9,10,10a-octahydrophenanthrene-1-carboxylic acid], in series [1], the Kd was 37 µM and the “Effects on K channel Mean ± SEM” value is on record as −31.6 ± 2.1 mV. Besides, in series [1] (1 μM, pH 7.4), the “ΔG(V) at 1 μM” value is −1.3±0.3 mV. For the same molecule, in series [1] (100 μM), the “compound-induced G(V) shift (mean±SEM)” value is on record as −31.6±2.1 mV, the pKa worked out at 6.5 and the “G(V) shift” value is on record as −31.6 mV. In series [1] (100 μM, pH 7.4, same cells as representative traces), the “ΔG(V) of representative G(V) curves (single examples)” value was −32.6 mV. Further, the maximum shift in series [1] (pH 7.4) is −46 mV. Besides, in series [2] (100 μM, pH 7.4), the “G(V) shift for WT relative to 100 μM DHAA” value is listed as ~10 times. In addition, the “G(V) shift for WT” value in series [2] (100 μM, pH 7.4, Xenopus oocytes) was −21.2 mV. Also, the pKa in series [2] (100 μM) came to 6.8. Moreover, the “current amplitude increase compared to DHAA” value in series [2] (WT channel at pH 7.4) turned out to be 56 times. Also, in series [2] (WT, 100 μM, pH 7.4), the “current amplitude increase compared to DHA (A=exp(−ΔV/4.7))” value is listed as 25 times. Also, in series [3], the “Effects on HL-1 cells Mean” value is on record as −5.5 mV.

The pKa is the pH at which an ionisable group is half protonated. In general, Kd refers to the constant that tells how readily two partners part at equilibrium.
